Laboratory results as given in US9939427B2, “Method for evaluating the scent performance of perfumes or perfume mixtures” (Symrise AG, priority 2013, dated 2018).
“Also recorded” adds a separate entry of the source.

Legend:
Format in all cases: cell-based
OR10A6 = biological target: T1, OR10A6 (Homo sapiens, UniProt Q8NH74); experiment: Ca-imaging of OR10A6-transfected HEK293 cells; parameters: key to OR10A6 responded to odorant: ▪: 18 olfactory receptors responded to 32 odorants in related with specific anosmia; details: for OR10A6 responded to odorant: HEK293 cells, individual odorant 200 μM, significant response p<0.05
T1 construct: specific primers, which amplify the complete open reading frame; expressed in transfected cells; host or cells: HEK293
T1 sequence (Q8NH74 1-314): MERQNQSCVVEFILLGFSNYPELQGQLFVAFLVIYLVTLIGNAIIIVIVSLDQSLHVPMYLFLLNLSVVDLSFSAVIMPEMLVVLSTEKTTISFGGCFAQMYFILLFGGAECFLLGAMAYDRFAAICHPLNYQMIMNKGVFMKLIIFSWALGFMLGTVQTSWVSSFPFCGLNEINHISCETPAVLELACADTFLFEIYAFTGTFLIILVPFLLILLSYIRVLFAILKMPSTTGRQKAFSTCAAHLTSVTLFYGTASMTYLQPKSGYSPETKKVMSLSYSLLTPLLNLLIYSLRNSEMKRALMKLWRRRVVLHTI
Procedure: (§1) HEK293 cells were cultivated in Petri dishes (Ø35 mm) as previously described (Benbernou et al. 2007). We grow up HEK293 cells in culture medium containing standard DMEM with 10% heat-inactivated fetal bovine serum, 2 mM L-glutamine, 100 units/ml penicillin, and 100 units/ml streptomycin in a humidified atmosphere (37° C., 5% CO2). After 2-3 days, the transfection process was carried out, whereby the cell culture was 70-80% confluent. The calciumphosphate method was applied to transfect DNA plasmid transiently in HEK293 cells in case of Ca-imaging method.
(§2) Calcium cations and phosphate anions created crystal precipitations coupled with DNA which could invade into the cells through endocytosis. Cells were transiently transfected with plasmid DNA which consists of pCI expression vector and PCR-amplified full-length cDNA of olfactory receptors candidates, and also Gα15, RTP1, Myr-Ric8A, HSC70, and m-Cherry as cofactors. The precipitation could be created after 15-20 min, with dropping the transfection solution on HEK293 cells. Before measuring by Ca-imaging cells were incubated 48-60 hours at 370 C, 5% CO2. Cationic liposome-mediated transfection method was applied to transfect DNA plasmid transiently in HANA3A cells in case of CRE-Luciferase and CRE-SEAP assays.
(§3) Calcium imaging of the transfected HEK293 cells was done by using chambers determinate an inverted microscope (Olympus; IX70) using a 10× objective (CPIanFL N Olympus). Fluorescence emission was determined every 4 s by using a CCD camera (Charge Coupled Device, C9100 Hamamatsu). The capillary tube which was responsible to supply odorants was generated closely above the cells. The columns filled with odorants, DMSO and ATP. Odorants were manually monitored to drop each 4-5 s to transfected cells. Solutions with drop wise form spread on HEK293 cells in 35 mm dishes.
(§4) In experiments, Fura-2 Acetoxymethylester (Fura-2/AM) was applied. The non-polar Fura2/AM is fluorescent but not yet calcium-sensitive. Once diffuses into cell plasma, Fura-2/AM is hydrolyzed to Fura-2 which is calcium-sensitive and functions as Ca2+ chelator. Regardless of the presence of calcium, Fura-2 emits at the wavelength of 510 nm. Once Fura-2 binds to free intracellular Ca2+ in cell plasma, its ratio of excitation at wavelengths of 340 nm and 380 nm is changed and correlated to the amount of intracellular Ca2+. According to this feature, the analysis of 340/380 nm excitation ratio for Fura-2 allows to quantify intracellular calcium levels.
(§5) In preparation for Ca-imaging measurements, transfected HEK293 cells were added 3 it Fura2/AM (3 μM) and incubated 30-45 min at 370 C, 5% CO2. After this step, experiments were carried out in a dark condition (Fura-2 is light-sensitive). After the incubation, medium of cell culture was replaced with 2 ml Ringer's solution.
(§6) Odorants were freshly prepared with DMSO as 1 M stocks solutions. Six mixtures (200 μM each chemical) were applied to cells sequentially (20 s each mixture/30 s Ringer). Those ORs tested with single odorants that had generated a response to odorant mixture group previously. Odorants were prepared in 100-200 μM concentration.
Ringer's solution was used for washing cells between measuring by two different odorants. Positive response was determined by the timing of the response, the strength of the response (more than twofold higher than the noise amplitude of the baseline), and the shape of the response curve (sharp rise in curve with gradual recovery). […]

OR8D2 = biological target: T2, OR8D2 (Homo sapiens, UniProt Q9GZM6); experiment: Ca-imaging of OR8D2-transfected HEK293 cells; parameters: key to OR8D2 responded to odorant: ▪: 18 olfactory receptors responded to 32 odorants in related with specific anosmia
T2 construct: specific primers, which amplify the complete open reading frame; expressed in transfected cells; host or cells: HEK293
T2 sequence (Q9GZM6 1-311): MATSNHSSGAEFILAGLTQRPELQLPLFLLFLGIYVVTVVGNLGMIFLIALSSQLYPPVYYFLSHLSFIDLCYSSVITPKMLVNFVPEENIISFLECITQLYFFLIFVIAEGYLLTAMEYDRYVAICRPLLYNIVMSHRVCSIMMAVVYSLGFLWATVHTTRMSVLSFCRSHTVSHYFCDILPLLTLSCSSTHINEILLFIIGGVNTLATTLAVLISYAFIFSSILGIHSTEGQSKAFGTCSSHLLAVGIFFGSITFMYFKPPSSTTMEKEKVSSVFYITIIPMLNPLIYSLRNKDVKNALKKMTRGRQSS
Procedure: as §1, §2, §3, §4, §5, §6
(§7) Ringer's solution was used for washing cells between measuring by two different odorants. Positive response was determined by the timing of the response, the strength of the response (more than twofold higher than the noise amplitude of the baseline), and the shape of the response curve (sharp rise in curve with gradual recovery). The typical shape of response curves was established by observing responses to repeated stimulation with 200 μM of odorants. After testing with single odorants at 100 μM, stimulating odorants were often retested at 200 μM concentrations. To confirm the result of every receptor that produced a significant response curves, the experiment was repeated for twelve times. Finally, cells were exposed to ATP (0.25 mM) which could activate P2Y receptor channel and induce Ca2+ influx into cells. […]

OR2L8 = biological target: T3, OR2L8 (Homo sapiens, UniProt Q8NGY9); experiment: Ca-imaging of OR2L8-transfected HEK293 cells; parameters: key to OR2L8 responded to odorant: ▪: 18 olfactory receptors responded to 32 odorants in related with specific anosmia
T3 construct: specific primers, which amplify the complete open reading frame; expressed in transfected cells; host or cells: HEK293
T3 sequence (Q8NGY9 1-312): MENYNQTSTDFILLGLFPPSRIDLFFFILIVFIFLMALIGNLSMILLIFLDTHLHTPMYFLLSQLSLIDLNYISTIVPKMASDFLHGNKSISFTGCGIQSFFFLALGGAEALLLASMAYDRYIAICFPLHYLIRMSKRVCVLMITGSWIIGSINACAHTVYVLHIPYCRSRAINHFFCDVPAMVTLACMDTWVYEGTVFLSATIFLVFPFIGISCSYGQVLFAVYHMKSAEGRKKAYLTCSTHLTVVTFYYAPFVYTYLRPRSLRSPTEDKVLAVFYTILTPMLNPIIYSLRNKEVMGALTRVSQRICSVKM
Procedure: as §1, §2, §3, §4, §5, §6, §7

[1] = test system: HEK293 cells transfected with all cofactors and pCI plasmids without ORs; experiment: Ca-imaging of control HEK293 cells without OR; details: odorant 200 μM, three times of measuring (Table 4, FIG. 5)
Procedure: as §1, §2, §3, §4, §5, §6, §7

OR1B1 = biological target: T4, OR1B1 (Homo sapiens, UniProt Q8NGR6); experiment: Ca-imaging of OR1B1-transfected HEK293 cells; parameters: key to OR1B1 responded to odorant: ▪: 18 olfactory receptors responded to 32 odorants in related with specific anosmia; details: for Number of cell responses, Experiment (OR1B1): odorant 200 μM, approximately 2000 transfected cells in three times of measuring (Table 4, FIG. 5)
T4 construct: specific primers, which amplify the complete open reading frame; expressed in transfected cells; host or cells: HEK293
T4 sequence (Q8NGR6 1-317): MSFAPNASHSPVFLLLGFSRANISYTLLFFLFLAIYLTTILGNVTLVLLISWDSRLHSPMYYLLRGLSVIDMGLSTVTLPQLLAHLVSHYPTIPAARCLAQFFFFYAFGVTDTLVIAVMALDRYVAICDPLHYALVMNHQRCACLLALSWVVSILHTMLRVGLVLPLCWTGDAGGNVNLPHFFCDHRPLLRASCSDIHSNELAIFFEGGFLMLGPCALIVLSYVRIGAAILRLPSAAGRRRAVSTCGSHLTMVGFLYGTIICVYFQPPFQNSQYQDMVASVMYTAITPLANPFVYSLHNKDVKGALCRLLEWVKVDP
Procedure: as §1, §2, §3, §4, §5, §6, §7

OR4X2 = biological target: T5, OR4X2 (Homo sapiens, UniProt Q8NGF9); experiment: Ca-imaging of OR4X2-transfected HEK293 cells; details: odorant 200 μM, approximately 2000 transfected cells in three times of measuring (Table 4, FIG. 5)
T5 construct: specific primers, which amplify the complete open reading frame; expressed in transfected cells; host or cells: HEK293
T5 sequence (Q8NGF9 1-303): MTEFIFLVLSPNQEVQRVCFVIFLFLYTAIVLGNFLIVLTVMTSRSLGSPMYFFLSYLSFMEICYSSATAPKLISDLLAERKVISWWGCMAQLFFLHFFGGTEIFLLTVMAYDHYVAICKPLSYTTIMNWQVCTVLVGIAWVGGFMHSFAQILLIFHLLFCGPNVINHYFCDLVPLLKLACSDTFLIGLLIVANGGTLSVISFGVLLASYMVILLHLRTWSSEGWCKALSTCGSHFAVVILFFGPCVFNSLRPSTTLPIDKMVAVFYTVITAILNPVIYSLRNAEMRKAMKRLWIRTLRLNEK
Procedure: as §1, §2, §3, §4, §5, §6, §7

OR8B4 = biological target: T6, OR8B4 (Homo sapiens, UniProt Q96RC9); experiment: Ca-imaging of OR8B4-transfected HEK293 cells; parameters: key to OR8B4 responded to odorant: ▪: 18 olfactory receptors responded to 32 odorants in related with specific anosmia
T6 construct: specific primers, which amplify the complete open reading frame; expressed in transfected cells; host or cells: HEK293
T6 sequence (Q96RC9 1-309): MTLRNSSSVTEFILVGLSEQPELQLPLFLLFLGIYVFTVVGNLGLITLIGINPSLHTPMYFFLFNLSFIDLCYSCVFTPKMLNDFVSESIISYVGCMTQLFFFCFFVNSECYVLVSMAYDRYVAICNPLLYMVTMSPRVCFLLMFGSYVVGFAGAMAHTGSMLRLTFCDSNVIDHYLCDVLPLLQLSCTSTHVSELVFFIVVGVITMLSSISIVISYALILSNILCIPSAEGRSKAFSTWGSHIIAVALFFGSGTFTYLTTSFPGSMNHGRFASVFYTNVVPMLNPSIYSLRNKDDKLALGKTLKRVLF
Procedure: as §1, §2, §3, §4, §5, §6, §7

[2] = Ca-imaging, HEK293 cells, individual odorant 200 μM, significant response p<0.05
[3] = Ca-imaging, single odorants 200 μM
[4] = odorant 200 μM, approximately 2000 transfected cells in three times of measuring (Table 4, FIG. 5)

## OC/C=C/c1ccccc1 [Cinamyl alcohol, Cinamylalcohol]
OR10A6
  OR10A6 responded to odorant: ▪

## CCCCCCO [Alcohol C6]
OR8D2; [2]
  OR8D2 responded to odorant: ▪
OR8D2; [3]
  Response of OR8D2 to odorant, in words: elicited a response; also recorded: significantly activated; also recorded: detected
OR8D2; [4]
  Number of cell responses, Experiment (OR8D2): 9
OR10A6
  OR10A6 responded to odorant: ▪
OR10A6; single odorants 200 μM
  Response of OR10A6 to odorant, in words: elicited a response; also recorded: detected

## CCCC(O)CCC1C(C)CCCC1(C)C (centres unmarked) [Timbrol, Timberol]
OR2L8; [2]
  OR2L8 responded to odorant: ▪
OR2L8; [3]
  Response of OR2L8 to odorant, in words: Ca2+ concentration increased
OR2L8; [4]
  Number of cell responses, Experiment (OR2L8): 10
[1]
  Number of cell responses, Control: 1

## Cc1occc(=O)c1O [3-Hydroxy-2-Methyl-4-Pyran, 3-Hydroxy-2-Methyl-4-Pyran-4-one]
OR1B1; [2]
  OR1B1 responded to odorant: ▪
OR1B1; [3]
  Response of OR1B1 to odorant, in words: significantly (P<0.05) activated
OR1B1; listed as 3-Hydroxy-2-methyl-4-pyranone
  Number of cell responses, Experiment (OR1B1): 35
OR1B1; listed as 3-hydroxy-2-methyl-4-pyrane
  Number of cell responses, Experiment (OR1B1): 9
[1]
  Number of cell responses, Control: 5

## CCCCCC=O [Aldehyde C6, Aldehyd C6]
OR4X2
  Number of cell responses, Experiment (OR4X2): 8
OR8B4; [2]
  OR8B4 responded to odorant: ▪
OR8B4; [3]
  Response of OR8B4 to odorant, in words: responded significantly
OR8B4; odorant 200 μM, approximately 2000 transfected cells in three times of measuring (FIG. 5)
  Number of cell responses (OR8B4): 8
[1]
  Number of cell responses, Control: 0
